# Results: patent US7504362B2, “Pesticidal compositions” (Merial Limited, priority 2002, dated 2009)
# System: Ctenocephalides felis, Diabrotica undecimpunctata, Nephotettix cincticeps or Rhipicephalus sanguineus
# Assay: Pooled statement: active in one or more of the above tests (Methods A to E)
# Format: in vivo
# Conditions: active = reaching the threshold of Method A, B, C, D or E; test not given per compound
# Method: The following representative test procedures, using compounds of the invention, were conducted to determine the parasiticidal and pesticidal activity of compounds of the invention.
# A test container was filled with 10 adults of Ctenocephalides felis. A glass cylinder was closed on one end with parafilm and placed on top of the test container. The test compound solution was then pipetted into bovine blood and added to the glass cylinder. The treated Ctenocephalides felis were held in this artificial dog test (blood 37° C., 40-60% relative humidity; Ctenocephalides felis 20-22° C., 40-60% relative humidity) and assessment performed at 24 and 48 hours after application. Active compounds gave at least 90% control of Ctenocephalides felis at a test concentration of 5 ppm or less.
# Two days before application, seeds of maize were soaked in water under warm conditions to elicit fast germination. One day before application, eggs of Diabrotica undecimpunctata were transferred to one half of a Japanese filter paper placed in a plastic petri dish. Afterwards, a sprouted maize seed was placed on a moistened pad beside the filter paper. Three drops of 200 microliters of test compound solution were carefully pipetted onto the egg. The remainder of the solution was placed on the maize and then the Petri dish was closed. The treated eggs in the Petri dishes were held in a climate chamber for 6 days. The compound efficacy (percentage of dead eggs and/or larvae in comparison to untreated control) was assessed 6 days after application using a binocular microscope.
# Active compounds gave at least 90% control of Diabrotica undecimpunctata at a test concentration of 10 ppm.
# The leaves of 12 rice plants having a stem length of 8 cm were dipped for 5 seconds into an aqueous solution of the formulated test compound. After the solution had run off, the rice plants treated in this manner were placed in a Petri dish and populated with about 20 larvae (L3 stage) of Nephotettix cincticeps. The Petri dish was closed and then stored in a climate chamber (16 hours of light/day, 25° C., 40-60% relative humidity). After 6 days storage, the percentage mortality of leafhopper larvae was determined.
# Active compounds gave at least 98% mortality of Nephotettix cinciceps larvae at a test concentration of 100 ppm.
# Solutions of the test compounds were dropped onto filter paper, dried and the filter paper placed into test tubes and infested with 10 adults of Ctenocephalides felis. The treated Ctenocephalides felis were held in a climate chamber (26° C., 80% RH) and the percentage efficacy assessed 24 hours and 48 hours after application in comparison with the untreated control.
# Active compounds gave at least 70% contact control of Ctenocephalides felis at a test concentration of 1000 ppm.
# Solutions of the test compounds were dropped onto filter paper, dried and the filter paper placed into test tubes and infested with 20-30 larvae (L1) of Rhipicephalus sanguineus and the tubes closed with a clip. The treated Rhipicephalus sanguineus were held in a climate chamber (25° C., 90% RH) and the percentage efficacy assessed 24 hours after application in comparison with the untreated control. Active compounds gave at least 70% contact control of Rhipicephalus sanguineus at a test concentration of 100 ppm.
row,SMILES,active in one or more of the above tests
1,CCCCCCCCCS(=O)(=O)N(C)c1c([S+]([O-])C(F)(F)F)c(C#N)nn1-c1c(Cl)cc(C(F)(F)F)cc1Cl (stereo not shown) [Compound 1-94],active
2,CN(c1c([S+]([O-])C(F)(F)F)c(C#N)nn1-c1c(Cl)cc(C(F)(F)F)cc1Cl)S(=O)(=O)Cc1cc(Cl)cc(Cl)c1 (stereo not shown) [Compound 2-150],active
3,CN(c1c(SC(F)(F)F)c(C#N)nn1-c1c(Cl)cc(C(F)(F)F)cc1Cl)S(=O)(=O)c1ccccc1Cl [Compound 5-1],active
4,Cc1ccc(CS(=O)(=O)N(C)c2c(S(=O)(=O)C(F)(F)F)c(C#N)nn2-c2c(Cl)cc(C(F)(F)F)cc2Cl)cc1 [Compound 2-144],active
5,Cc1cccc(S(=O)(=O)N(C)c2c([S+]([O-])C(F)(F)F)c(C#N)nn2-c2c(Cl)cc(C(F)(F)F)cc2Cl)c1 (stereo not shown) [Compound 5-75],active
6,Cc1cc(C)c(S(=O)(=O)N(C)c2c(SC(F)(F)F)c(C#N)nn2-c2c(Cl)cc(C(F)(F)F)cc2Cl)c(C)c1 [Compound 5-40],active
7,CN(c1c([S+]([O-])C(F)(F)F)c(C#N)nn1-c1c(Cl)cc(C(F)(F)F)cc1Cl)S(=O)(=O)C=Cc1ccccc1 (stereo not shown) [Compound 1-114],active
8,CN(c1c([S+]([O-])C(F)(F)F)c(C#N)nn1-c1c(Cl)cc(C(F)(F)F)cc1Cl)S(=O)(=O)c1cccc2ccccc12 (stereo not shown) [Compound 5-89],active
9,CCCCCCCCCCS(=O)(=O)N(C)c1c(SC(F)(F)F)c(C#N)nn1-c1c(Cl)cc(C(F)(F)F)cc1Cl [Compound 1-125],active
10,CN(c1c(SC(F)(F)F)c(C#N)nn1-c1c(Cl)cc(C(F)(F)F)cc1Cl)S(=O)(=O)c1cc(Cl)cc(Cl)c1 [Compound 5-42],active
11,CN(c1c([S+]([O-])C(F)(F)F)c(C#N)nn1-c1c(Cl)cc(C(F)(F)F)cc1Cl)S(=O)(=O)c1ccc(F)cc1 (stereo not shown) [Compound 5-54],active
12,"CN(c1c(S(=O)(=O)C(F)(F)F)c(C#N)nn1-c1c(Cl)cc(C(F)(F)F)cc1Cl)S(=O)(=O)CCCCl [Compound 1-121, 1-(2,6-Dichloro-4-trifluoromethylphenyl)-5-[N-(3-chloropropylsulfonyl)-N-methylamino]-3-cyano-4-trifluoromethylsulfonylpyrazole]",active
13,CCCCCCCCCS(=O)(=O)N(C)c1c(SC(F)(F)F)c(C#N)nn1-c1c(Cl)cc(C(F)(F)F)cc1Cl [Compound 1-124],active
14,CCCCCCCCCCCCS(=O)(=O)N(C)c1c([S+]([O-])C(F)(F)F)c(C#N)nn1-c1c(Cl)cc(C(F)(F)F)cc1Cl (stereo not shown) [Compound 1-126],active
15,CN(c1c([S+]([O-])C(F)(F)F)c(C#N)nn1-c1c(Cl)cc(C(F)(F)F)cc1Cl)S(=O)(=O)C(Cl)Cl (stereo not shown) [Compound 1-119],active
16,CN(c1c([S+]([O-])C(F)(F)F)c(C#N)nn1-c1c(Cl)cc(C(F)(F)F)cc1Cl)S(=O)(=O)c1cccc(C(F)(F)F)c1 (stereo not shown) [Compound 5-60],active
17,CN(c1c([S+]([O-])C(F)(F)F)c(C#N)nn1-c1c(Cl)cc(C(F)(F)F)cc1Cl)S(=O)(=O)c1ccc(-c2ccc(Cl)c(Cl)c2)cc1 (stereo not shown) [Compound 5-150],active
18,CN(c1c(SC(F)(F)F)c(C#N)nn1-c1c(Cl)cc(C(F)(F)F)cc1Cl)S(=O)(=O)Cc1ccc(C(F)(F)F)cc1 [Compound 2-58],active
19,CN(c1c(SC(F)(F)F)c(C#N)nn1-c1c(Cl)cc(C(F)(F)F)cc1Cl)S(=O)(=O)Cc1ccc(F)cc1 [Compound 2-51],active
20,CCS(=O)(=O)N(C)c1c(SC(F)(F)F)c(C#N)nn1-c1c(Cl)cc(C(F)(F)F)cc1Cl [Compound 1-44],active
21,CN(c1c(SC(F)(F)F)c(C#N)nn1-c1c(Cl)cc(C(F)(F)F)cc1Cl)S(=O)(=O)c1ccc(C(C)(C)C)cc1 [Compound 5-38],active
22,CCCCCCCCCCS(=O)(=O)N(C)c1c([S+]([O-])C(F)(F)F)c(C#N)nn1-c1c(Cl)cc(C(F)(F)F)cc1Cl (stereo not shown) [Compound 1-95],active
